Marks after values point to notes of the source that are not given here.

The values that follow come from patent US10028956B2, “Methods of treating various cancers using an AXL/cMET inhibitor in combination with other agents” (Ignyta, Inc., priority 2013, dated 2018).

For one test, the system named is 298 kinases. In words: Kinome selectivity against 298 kinases. The class given is biochemical.
For test [1], the system named is CTG-0165 erlotinib-insensitive primary NSCLC human TumorGraft. As to the kind of experiment: NSCLC TumorGraft model CTG-0165. The class given is in vivo, mice. As to conditions: for % Tumor Growth Inhibition: CTG-0165, 37 days. As to the method:
(§1) Methods (for the experiments shown in FIGS. 10 and 11) • Female immunocompromised nu/nu mice (Harlan) between 6-9 weeks of age were housed on irradiated papertwist-enriched ⅛″ corncob bedding (Sheperd) in individual HEPA ventilated cages (Innocage® IVC, Innovive USA) on a 12-hour light-dark cycle at 68-74° F. (20-23° C.) and 30-70% humidity. Animals were fed water ad libitum (reverse osmosis, 2 ppm Cl2) and an irradiated Test rodent diet (Teklad 2919) consisting of 19% protein, 9% fat, and 4% fiber. • Tumor Models: Champions TumorGraft models of NSCLC are owned by Champions Oncology. In this study, animals were implanted unilaterally on the right flank with tumor fragments harvested from host animals. […] Erlotinib (manufacturer: OSI Pharmaceuticals; National Drug Code: 50242-062-01; Lot #: US0002) was formulated using 100% PEG-400 as the vehicle according to manufacturer's specifications.
(§2) Efficacy measurements: Beginning Day 0, tumor dimensions were measured twice weekly by digital caliper (Fowler Ultra-Cal IV) and data including individual and mean estimated tumor volumes (Mean TV±SEM) were recorded for each group; tumor volume was calculated using the formula TV=width^2×length×0.52. At study completion, percent tumor growth inhibition (% TGI) values were calculated and reported for each treatment group (T) versus control (C) using initial (i) and final (f) tumor measurements by the formula: % TGI=1−Tf−Ti/Cf−C; single agent or combination therapies resulting in a TGI>50 at study completion are considered active in the tested model at the evaluated treatment regimen according to NCI guidelines. Individual mice reporting a tumor volume ≤50% of the Day 0 measurement for two consecutive measurements over a seven day period were considered partial responders (PR). If the PR persisted until study completion, percent tumor regression (% TR) was determined using the formula: % TR=1−Tf/Ti×100; a mean value was calculated if multiple PR mice occurred in one group. Individual mice lacking palpable tumors (<4×4 mm^2 for two consecutive measurements over a seven day period) were classified as complete responders (CR); a CR that persisted until study completion was considered a tumor-free survivor (TFS). TFS animals are excluded from efficacy calculations. Statistical differences in tumor volume were determined using a two-tailed One-Way Analysis of Variance (ANOVA) followed by the Dunett's multiple comparisons test comparing treated groups with control and combinations with standard agent alone when possible. All data collected in this study was managed electronically and stored on a redundant server system.

The subject of test [2] is CTG-0170 erlotinib-insensitive primary NSCLC human TumorGraft. In words: NSCLC TumorGraft model CTG-0170. Format: in vivo, mice. As to conditions: for % Tumor Growth Inhibition: CTG-0170, 10 days. As to the method: as §1, §2
Test [3] deals with CTG-0192 erlotinib-sensitive NSCLC TumorGraft. In words: NSCLC TumorGraft model CTG-0192. As to conditions: for % Tumor Growth Inhibition: CTG-0192, 32 days. Format: in vivo, mice. As to the method: as §1, §2
The target of another test is T1, AXL (Homo sapiens, UniProt P30530).
T1 sequence (P30530 26-894): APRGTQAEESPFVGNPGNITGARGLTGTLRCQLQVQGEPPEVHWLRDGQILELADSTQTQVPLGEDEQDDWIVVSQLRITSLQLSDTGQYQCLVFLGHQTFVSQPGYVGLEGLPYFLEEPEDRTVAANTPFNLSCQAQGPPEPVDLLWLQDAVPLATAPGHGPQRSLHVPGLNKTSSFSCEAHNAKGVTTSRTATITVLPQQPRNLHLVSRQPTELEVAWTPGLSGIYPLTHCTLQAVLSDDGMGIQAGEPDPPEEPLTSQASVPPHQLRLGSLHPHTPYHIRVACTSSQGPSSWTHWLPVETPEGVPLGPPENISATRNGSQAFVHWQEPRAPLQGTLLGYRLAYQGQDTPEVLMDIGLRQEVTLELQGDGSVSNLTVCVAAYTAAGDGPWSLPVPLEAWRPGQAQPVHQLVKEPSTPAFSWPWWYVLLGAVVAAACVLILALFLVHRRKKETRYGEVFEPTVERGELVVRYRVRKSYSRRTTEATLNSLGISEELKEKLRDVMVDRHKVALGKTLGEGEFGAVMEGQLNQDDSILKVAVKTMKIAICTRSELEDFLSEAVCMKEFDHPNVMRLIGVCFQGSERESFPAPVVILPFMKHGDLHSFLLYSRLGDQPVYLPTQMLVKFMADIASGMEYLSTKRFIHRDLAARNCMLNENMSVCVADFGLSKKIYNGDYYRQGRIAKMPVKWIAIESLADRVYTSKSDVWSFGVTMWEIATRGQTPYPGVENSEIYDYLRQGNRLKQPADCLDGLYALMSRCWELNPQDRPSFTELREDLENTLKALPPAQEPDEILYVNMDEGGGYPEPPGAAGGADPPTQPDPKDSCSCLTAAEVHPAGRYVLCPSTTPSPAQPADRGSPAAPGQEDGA
In words: Cellular potency in NCI-H1299 human NSCL cells. Format: cell-based. On the set-up: endogenous in cells; host or cells: NCI-H1299 human NSCLC cells (culture; subcutaneous xenograft in mice).

For the compound `COc1cc2nccc(Oc3ccc(NC(=O)c4cn(C(C)C)c(=O)n(-c5ccc(F)cc5)c4=O)cc3F)c2cc1OC` [CEP-40783, 3-(4-Fluorophenyl)-1-isopropyl-2,4-dioxo-1,2,3,4-tetrahydropyrimidine-5-carboxylic acid [4-(6,7-dimethoxyquinolin-4-yloxy)-3-fluorophenyl]-amide], the “S90 (fraction of kinases showing >90% inhibition at 1 μM)” value with 298 kinases was 0.04. For the same compound, the “% Tumor Growth Inhibition” value in test [1] (10 mg/kg po/qd) came to 116%*†; in test [1] (30 mg/kg po/qd) it was 118%*†; in test [2] (10 mg/kg po/qd), 104%*†; in test [2] (30 mg/kg po/qd), 107%*†; in test [3] (10 mg/kg po/qd), 85%*; in test [3] (30 mg/kg po/qd) it was 71%*. Moreover, the “efficacy in erlotinib-insensitive TumorGraft” value in test [1] (CTG-0165, oral 10 mg/kg and 30 mg/kg) is reported as “tumor regressions”; in test [2] (CTG-0170, oral 10 mg/kg and 30 mg/kg), “tumor regressions”. Besides, the “acquired resistance during the treatment phase” value in test [3] (CTG-0192) is given as “no acquired resistance”. Besides, the “tumor response, single agent” value in test [3] (CTG-0192, also after dosing discontinued (day 34)) was “significant TGI/tumor stasis was maintained even after dosing was discontinued”. For the same compound, the IC50 at AXL came out at 0.1 nM.
